Data on 25 molecules can be found in ChEMBL document CHEMBL1201862, “PubChem BioAssay data set” (2004).

What all share (experiment): NCI tumour cell line growth inhibition, 48 h
For test [1], the system named is KM-20L2.
Test [2] relates to LXFL 529.
Test [3] relates to XF498.
The subject of test [4] is DMS-114.
Test [5] has as its system DLD-1.
The subject of test [6] is DMS-273.
Test [7] relates to HOP-18.
For test [8], the system named is SNB-78.
The subject of test [9] is RXF 631.

SMILES strings stand for the structures.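 These data come from cells grown in 96-well plates and exposed to compound for 48 hours at five concentrations. GI50 is the concentration that inhibits growth by half.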 Calls of active or inactive are those of the source. Rule as the data show it: active = GI50 up to about 1.1 µM and inactive = higher. Where a SMILES comes first, the peptide text is derived from it. [ ]: non-standard residue; d: D form. Phe(4-Cl) = N[CH](Cc1ccc(Cl)cc1)C(=O)O

As to `CC1=NN(C(=O)c2ccc(Cl)cc2)C(=O)/C1=C/c1ccc(O)cc1`, the GI50 in test [1], in [2], in test [3], in test [4] and in [5] was > 100 µM (inactive) throughout.

As for `COc1ccc2c(c1)NC1(O)c3ccccc3C(=O)C21O` (centres undefined), the GI50 in test [1] was > 100 µM (inactive); in test [6] it was > 100 µM (inactive); in test [7], > 100 µM (inactive); in test [2] it was > 100 µM (inactive); in [3], 25 µM (inactive); in test [8] it was > 100 µM (inactive). The GI50 in test [4], in test [5] and in test [9] was > 100 µM (inactive) each time.

Consider `CCCCC#COP(=O)(OCC)OCC`, for which the GI50 in [1], in test [2], in test [8], in test [4], in test [5] and in test [9] was > 100 µM (inactive) throughout.

As for `CC(=O)Nc1ccc(C(=O)NN2C(=O)C(Cl)C2c2cc(Br)ccc2O)cc1` (centres undefined), the GI50 is 4.41 µM (inactive) in [7], 14.4 µM (inactive) in test [2] and 4.74 µM (inactive) in test [5].

With `O=C[C@@H](CO)O[C@H](C=O)c1c[nH]c(=O)[nH]c1=O`, the GI50 in [1] was 84.3 µM (inactive); in [6], > 81.5 µM (inactive); in test [7] it was 95.1 µM (inactive); in test [3] it was 24.7 µM (inactive); in test [8], 133 µM (inactive); in test [4] it was 37.6 µM (inactive). In [5], the GI50 was 75 µM (inactive).

In the case of `CCc1cccc(CC)c1NC(=O)C(C#N)C1=C(Cl)C(=O)c2ccccc2C1=O` (centres undefined), the GI50 in [1] is 21.4 µM (inactive); in test [6] it was 17.9 µM (inactive); in test [7], 15.5 µM (inactive); in test [2] it was 16.1 µM (inactive); in test [3], 15.9 µM (inactive); in [8] it was 8.15 µM (inactive). Also, the GI50 in test [4] was 22 µM (inactive); in test [5], 17.4 µM (inactive); in test [9], 16.1 µM (inactive).

For the molecule `COC(=O)C1(F)C(=O)NC(=O)NC1OC` (centres undefined), the GI50 was 50.9 µM (inactive) in test [1]; 21.2 µM (inactive) in test [6]; 88.7 µM (inactive) in test [7]; 67.1 µM (inactive) in test [3]; > 100 µM (inactive) in test [8]; 73.3 µM (inactive) in [4]. Further, the GI50 in test [5] is 5.92 µM (inactive).

Turning to `CC(=O)OCC(=O)[C@@]1(O)CC[C@H]2[C@@H]3CCC4=CC(=O)[C@H](C)C[C@]4(C)[C@H]3[C@@H](O)C[C@@]21C`, the GI50 in test [1] was > 100 µM (inactive); in test [6] it was > 100 µM (inactive); in [7], > 100 µM (inactive); in [3], > 100 µM (inactive); in test [8], 9.77 µM (inactive); in test [4] it was > 100 µM (inactive). Also, the GI50 in test [5] is > 100 µM (inactive).

As to `COC(=O)CCC(NC(=S)N/N=C/c1ccco1)C(=O)OC` (centres undefined), the GI50 in [1], in [6], in [7], in test [2], in [3] and in test [8] was > 100 µM (inactive) throughout. Moreover, the GI50 in test [4], in test [5] and in test [9] was > 100 µM (inactive) each time.

Take `CC1=C(c2cc(C(=O)Nc3cccc(C(F)(F)F)c3)nc(NC#N)n2)Sc2ccccc2N1`: the GI50 in test [1], in test [6], in test [7], in [2], in test [8] and in test [4] was > 100 µM (inactive) each time. Besides, the GI50 in test [5] and in test [9] was > 100 µM (inactive) throughout.

As for `CN(C)CC1CCC(=C2CCCC2)C1=O` (centres undefined), the GI50 in [1] is 18.7 µM (inactive); in test [6], 18.3 µM (inactive); in [7] it was 16.7 µM (inactive); in test [2] it was 3.24 µM (inactive); in test [3] it was 6.84 µM (inactive); in test [8], 12.6 µM (inactive). Also, the GI50 in test [4] was 8.81 µM (inactive); in test [5], 2.82 µM (inactive).

For the molecule `COc1ccc2c(c1)[n+]([O-])c(C(=O)CC(=O)C(=O)Nc1cccc(Cl)c1C)c(C)[n+]2[O-]`, the GI50 in [1], in [6], in test [7], in [2] and in test [8] was > 100 µM (inactive) throughout.

As to `O=c1c2ccc(Br)cc2nc(-c2ccccc2)n1NC1OC(CO)C(O)C(O)C1O` (centres undefined), the GI50 in test [1], in [6], in test [7], in [2], in test [3] and in [8] was > 100 µM (inactive) throughout. Moreover, the GI50 in test [4] is > 100 µM (inactive).

For the molecule `COC1=CC2(C=CC1=O)c1cc(OC)c(OC)cc1CCN2C(=O)c1ccccc1` (centres undefined), the GI50 in test [6] is > 100 µM (inactive); in [7] it was 98.2 µM (inactive); in test [2] it was > 100 µM (inactive); in test [8], > 100 µM (inactive); in test [4], > 100 µM (inactive); in test [5], > 100 µM (inactive).

`Cc1ccc2c(c1)C(c1cccc3ccccc13)OC2=O` (centres undefined): the GI50 was > 100 µM (inactive) in test [1]; > 100 µM (inactive) in test [6]; 71.6 µM (inactive) in test [7]; > 100 µM (inactive) in test [2]; > 100 µM (inactive) in [4]; 75 µM (inactive) in test [5]. For the same molecule, the GI50 in test [9] is 27.7 µM (inactive).

As for `CCCCCC1C2C(=O)NC(=O)C1C(=O)NC2=O` (centres undefined), the GI50 in test [1], in test [6], in test [2], in test [3], in [4] and in test [5] was > 100 µM (inactive) each time.

`CS(=O)(=O)NNS(=O)(=O)c1ccc(Cl)cc1`: the GI50 in test [1], in test [6], in test [2], in test [3], in test [4] and in test [5] was > 100 µM (inactive) throughout. For the same molecule, in test [9], the GI50 was > 100 µM (inactive).

As to `CC12CCc3ccccc3C1=NNC(=O)C2` (centres undefined), the GI50 in test [1], in test [6], in test [7], in test [2], in [3] and in test [8] was > 100 µM (inactive) throughout. For the same molecule, the GI50 in test [4] and in test [5] was > 100 µM (inactive) throughout.

For `CCOC(=O)c1c(-c2ccccc2)oc(-c2ccccc2)c1C(=O)OCC`, the GI50 in test [1] is 38.9 µM (inactive); in test [6], > 100 µM (inactive); in [7] it was > 100 µM (inactive); in [2] it was 34.6 µM (inactive); in test [3], 29.2 µM (inactive); in test [8] it was > 100 µM (inactive). Besides, the GI50 in test [4] and in test [5] was > 100 µM (inactive) throughout.

In the case of `COC(=O)C1=C(c2ccc(Cl)cc2)C(O)NC(NN)=N1` (centres undefined), the GI50 in [7], in [2], in test [3], in [8], in test [4] and in test [5] was > 100 µM (inactive) throughout. For the same molecule, the GI50 in test [9] was > 100 µM (inactive).

As for `CCCCCCCC1(c2ccc(N)cc2)CCC(=O)NC1=O` (centres undefined), the GI50 in test [1] was 33 µM (inactive); in test [6], 26.9 µM (inactive); in [2] it was 29.3 µM (inactive); in [3], 27.2 µM (inactive); in test [8], 31.6 µM (inactive); in [4], 24.2 µM (inactive). For the same molecule, the GI50 in test [5] is 33.7 µM (inactive); in [9] it was 41 µM (inactive).

Regarding `COC(=N)c1csc(C2OC(CO)C(O)C2O)n1` (centres undefined), the GI50 in [1], in test [6], in [7], in test [2], in test [3] and in [8] was > 100 µM (inactive) throughout. Besides, the GI50 in test [4] is > 100 µM (inactive); in test [5] it was 83.9 µM (inactive); in [9], > 100 µM (inactive).

For the molecule `CCN(CC)CCCC(C)Nc1c2ccc(Cl)cc2nc2ccc(OC)cc12` (centres undefined), the GI50 was 1.33 µM (inactive) in test [1]; 0.548 µM (active) in test [6]; 1.53 µM (inactive) in test [2]; 1.73 µM (inactive) in test [3]; 3.23 µM (inactive) in test [8]; 1.7 µM (inactive) in test [4]. The figures for the GI50 in [5] and in test [9] were 1.64 µM (inactive) and 1.77 µM (inactive), respectively.

In the case of `CC(O)C(NC(=O)C(Cc1ccccc1)NC(=O)C(NC(=O)C(CCCCN)NC(=O)C(Cc1c[nH]c2ccccc12)NC(=O)C(Cc1ccc(O)cc1)NC(=O)C(Cc1ccc(Cl)cc1)NC(=O)C(N)Cc1ccccc1)C(C)O)C(N)=O` (centres undefined) (H-F[Phe(4-Cl)]YWKTFT-NH2; configuration not given here), the GI50 in test [1] was 21.2 µM (inactive); in test [6] it was 33 µM (inactive); in test [2] it was 18.4 µM (inactive); in [3] it was 14.2 µM (inactive); in test [8], 25.4 µM (inactive); in test [4], 17.3 µM (inactive). Further, the GI50 was 20.3 µM (inactive) in [5] and 19.4 µM (inactive) in [9].

With `Cc1ccc2ccc3ccc(C)nc3c2n1` [NEOCUPROINE], the GI50 is 6.24 µM (inactive) in [1]; 2.36 µM (inactive) in test [6]; 63.4 µM (inactive) in [7]; 0.679 µM (active) in test [2]; > 100 µM (inactive) in [8]; 0.388 µM (active) in [4]. Further, the GI50 in test [5] was 0.656 µM (active).
